Drawing on ChEMBL document CHEMBL1201862, “PubChem BioAssay data set” (2004), this text covers AC50 and EC50 for 38 compounds.

SMILES strings stand for the structures. Active and inactive are the calls of the source.

Some targets named below: Cytochrome P450 3A4 (Homo sapiens, UniProt P08684); Cytochrome P450 2D6 (Homo sapiens, UniProt P10635); Cytochrome P450 2C9 (Homo sapiens, UniProt P11712).
In another assay the target is T1, Cytochrome P450 1A2 (Homo sapiens, UniProt P05177).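 Also: PubChem cytochrome P450 panel assay, CYP1A2 panel member.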
T1 sequence (P05177 whole entry): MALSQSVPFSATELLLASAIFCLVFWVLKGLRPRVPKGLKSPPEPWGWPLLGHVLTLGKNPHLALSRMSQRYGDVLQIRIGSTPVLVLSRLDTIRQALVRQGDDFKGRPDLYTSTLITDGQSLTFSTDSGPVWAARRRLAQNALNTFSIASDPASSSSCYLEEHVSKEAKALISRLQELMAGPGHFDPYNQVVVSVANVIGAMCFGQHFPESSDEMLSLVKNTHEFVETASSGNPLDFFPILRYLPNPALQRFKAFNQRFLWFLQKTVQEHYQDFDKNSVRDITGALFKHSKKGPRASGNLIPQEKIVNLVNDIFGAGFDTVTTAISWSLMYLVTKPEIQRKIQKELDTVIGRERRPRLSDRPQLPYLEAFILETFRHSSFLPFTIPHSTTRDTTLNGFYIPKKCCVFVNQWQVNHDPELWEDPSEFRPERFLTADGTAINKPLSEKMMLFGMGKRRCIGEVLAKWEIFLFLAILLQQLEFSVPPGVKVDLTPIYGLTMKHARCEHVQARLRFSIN

Assay [1] has as its target T2, Heat shock factor protein 1 (Mus musculus, UniProt P38532).
T2 sequence (P38532 whole entry): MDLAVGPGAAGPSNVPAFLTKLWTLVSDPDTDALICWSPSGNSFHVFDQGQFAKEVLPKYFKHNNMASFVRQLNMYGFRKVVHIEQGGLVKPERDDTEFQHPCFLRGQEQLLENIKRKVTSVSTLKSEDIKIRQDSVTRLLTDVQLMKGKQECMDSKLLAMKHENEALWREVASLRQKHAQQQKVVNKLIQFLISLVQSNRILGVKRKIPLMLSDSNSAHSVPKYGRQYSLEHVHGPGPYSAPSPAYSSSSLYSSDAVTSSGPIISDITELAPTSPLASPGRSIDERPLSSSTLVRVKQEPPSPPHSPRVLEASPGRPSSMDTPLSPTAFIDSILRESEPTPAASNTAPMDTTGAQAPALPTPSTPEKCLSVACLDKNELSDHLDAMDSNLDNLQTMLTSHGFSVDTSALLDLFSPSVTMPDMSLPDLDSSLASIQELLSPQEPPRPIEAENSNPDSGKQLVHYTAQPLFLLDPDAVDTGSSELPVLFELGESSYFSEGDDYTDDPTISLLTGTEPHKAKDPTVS
As to the kind of experiment: inhibition of MG132-induced HSE-luciferase signal, confirmation, cell-based, NIH3T3, luminescence, dose retest (AID 2382).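 Also: NIH3T3 fibroblasts with HSF1-driven luciferase reporter stressed by proteasome inhibitor MG132; luminescence from HSF1-driven luciferase expression after 8 hours of MG132 stress.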 Format: functional.

The target of another assay is T3, Streptokinase A (Streptococcus pyogenes serotype M1, UniProt P10520).
T3 sequence (P10520 whole entry): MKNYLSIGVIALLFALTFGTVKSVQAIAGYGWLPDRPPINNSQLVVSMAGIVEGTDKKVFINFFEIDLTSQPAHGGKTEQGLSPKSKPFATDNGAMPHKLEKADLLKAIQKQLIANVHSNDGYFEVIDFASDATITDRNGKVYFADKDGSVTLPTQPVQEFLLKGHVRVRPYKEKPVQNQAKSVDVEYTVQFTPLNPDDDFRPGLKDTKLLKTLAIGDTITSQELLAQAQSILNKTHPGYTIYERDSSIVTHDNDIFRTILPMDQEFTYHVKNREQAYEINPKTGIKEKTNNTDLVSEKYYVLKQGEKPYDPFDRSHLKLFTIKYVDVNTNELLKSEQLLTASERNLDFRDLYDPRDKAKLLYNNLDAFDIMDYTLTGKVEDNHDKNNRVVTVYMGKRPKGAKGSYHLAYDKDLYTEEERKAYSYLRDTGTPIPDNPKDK
The assay is described as follows: S. pyogenes streptokinase expression inhibitors, potency, dose response, plasminogen activation absorbance, OD405 (AID 1914).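 Also: secreted streptokinase activity via plasminogen activation per viability signal from cell pellet.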 Type of assay: functional, Streptococcus pyogenes M1 GAS.

The target of another assay is Cytochrome P450 2C19 (Homo sapiens, UniProt P33261). As to the kind of experiment: Cytochrome panel assay with activity outcomes. Panel member name: p450-cyp2c19 Compounds with AC50 equal or less than 10 uM are considered active. Format: functional. Particulars: read-out: AC50.
The test system of assay [2] is Streptococcus sp. 'group A'. The assay is described as follows: growth inhibition of control SK(-) GAS strain, dose response, counter-screen for streptokinase expression inhibitor project, luminescence, kanamycin, BacTiterGlo, confirmation (AID 1900). Type of assay: functional, organism-based. (In general: Counterscreens check selectivity or assay interference.)
In another assay the test system is Streptococcus. The assay is described as follows: Group A Streptococcus viability loss, dose response, counter-screen for streptokinase expression inhibitor project, luminescence, BacTiterGlo (AID 1915).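 Also: potency for reduction of bacterial viability or growth.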 Type of assay: functional, organism-based.
The nature of assay [3]: Luminescence Cell-Based Dose Response HTS to Identify Inhibitors of 5'UTR Stem-Loop Driven Prion Protein mRNA Translation in H4 Neuroglioblastoma Cells. [Related pubchem assays: 1827 (Project Summary), 1813 (Primary HTS)]. Type of assay: functional.
A short description of assay [4]: inhibitors of SNCA 5'UTR-driven reporter translation, confirmation, H4 neuroglioma cells, luminescence (AID 1988). Format: functional, cell-based.

Sequence of Cytochrome P450 3A4 (P08684 whole entry): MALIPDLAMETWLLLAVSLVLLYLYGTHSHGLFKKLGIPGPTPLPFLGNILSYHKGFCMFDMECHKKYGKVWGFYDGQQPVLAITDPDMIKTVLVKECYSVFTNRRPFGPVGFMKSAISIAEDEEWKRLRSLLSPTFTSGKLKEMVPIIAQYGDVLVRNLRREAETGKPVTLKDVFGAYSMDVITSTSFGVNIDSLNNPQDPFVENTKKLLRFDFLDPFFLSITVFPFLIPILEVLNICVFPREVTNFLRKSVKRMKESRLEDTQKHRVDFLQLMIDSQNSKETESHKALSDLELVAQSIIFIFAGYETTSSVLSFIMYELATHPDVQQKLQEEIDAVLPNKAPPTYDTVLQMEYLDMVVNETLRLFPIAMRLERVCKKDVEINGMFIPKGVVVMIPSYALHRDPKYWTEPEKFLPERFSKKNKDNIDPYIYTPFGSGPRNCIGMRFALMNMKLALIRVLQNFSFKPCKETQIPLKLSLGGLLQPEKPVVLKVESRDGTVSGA
Sequence of Cytochrome P450 2C19 (P33261 whole entry): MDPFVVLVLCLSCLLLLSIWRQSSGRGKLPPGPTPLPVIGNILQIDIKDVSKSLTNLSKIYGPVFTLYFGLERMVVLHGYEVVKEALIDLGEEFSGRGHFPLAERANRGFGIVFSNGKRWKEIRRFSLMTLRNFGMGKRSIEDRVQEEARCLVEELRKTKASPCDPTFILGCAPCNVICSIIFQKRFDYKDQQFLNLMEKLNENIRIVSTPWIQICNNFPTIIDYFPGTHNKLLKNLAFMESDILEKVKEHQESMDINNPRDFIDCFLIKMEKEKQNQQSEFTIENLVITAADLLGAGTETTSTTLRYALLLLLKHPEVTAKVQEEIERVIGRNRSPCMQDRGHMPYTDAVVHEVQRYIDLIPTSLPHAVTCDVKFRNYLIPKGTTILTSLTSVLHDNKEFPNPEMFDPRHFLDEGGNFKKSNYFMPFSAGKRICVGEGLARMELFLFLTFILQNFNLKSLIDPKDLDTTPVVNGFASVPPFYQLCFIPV
Sequence of Cytochrome P450 2D6 (P10635 whole entry): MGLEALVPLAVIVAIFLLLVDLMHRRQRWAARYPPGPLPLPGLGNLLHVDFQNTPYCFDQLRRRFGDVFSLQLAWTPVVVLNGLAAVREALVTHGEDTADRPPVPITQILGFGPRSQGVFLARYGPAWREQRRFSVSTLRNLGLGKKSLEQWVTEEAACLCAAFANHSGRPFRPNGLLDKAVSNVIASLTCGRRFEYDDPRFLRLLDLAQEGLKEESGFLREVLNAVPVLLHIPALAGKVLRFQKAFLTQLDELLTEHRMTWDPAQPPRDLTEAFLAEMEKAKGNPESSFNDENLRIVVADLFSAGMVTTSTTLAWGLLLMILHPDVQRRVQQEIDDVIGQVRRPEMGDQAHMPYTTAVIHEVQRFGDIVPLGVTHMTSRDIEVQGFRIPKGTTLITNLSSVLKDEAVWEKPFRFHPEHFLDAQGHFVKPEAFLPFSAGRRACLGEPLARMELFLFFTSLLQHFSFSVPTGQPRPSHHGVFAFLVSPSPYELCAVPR
Sequence of Cytochrome P450 2C9 (P11712 whole entry): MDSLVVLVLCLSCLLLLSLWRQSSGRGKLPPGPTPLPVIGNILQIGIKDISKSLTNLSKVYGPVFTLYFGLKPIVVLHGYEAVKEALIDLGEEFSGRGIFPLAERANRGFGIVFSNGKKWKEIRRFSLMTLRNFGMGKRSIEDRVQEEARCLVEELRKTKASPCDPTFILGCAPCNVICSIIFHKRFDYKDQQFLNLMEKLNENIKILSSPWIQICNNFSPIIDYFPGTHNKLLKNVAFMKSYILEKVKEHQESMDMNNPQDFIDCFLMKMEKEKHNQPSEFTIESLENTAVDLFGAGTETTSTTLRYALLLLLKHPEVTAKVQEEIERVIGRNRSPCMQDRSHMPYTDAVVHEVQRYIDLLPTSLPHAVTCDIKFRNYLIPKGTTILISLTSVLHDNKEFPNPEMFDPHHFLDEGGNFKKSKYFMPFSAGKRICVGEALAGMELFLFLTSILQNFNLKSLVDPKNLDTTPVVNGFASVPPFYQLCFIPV

For orientation: AC50 means the concentration at which the activity in the assay is half-maximal. As for `Clc1ccc(Sc2cc(N3CCOCC3)nc(-c3ccccc3)n2)cc1`, the results for the AC50 on Cytochrome P450 1A2 and on Cytochrome P450 3A4 were 1.41 µM (inconclusive) and 15.8 µM (inconclusive), respectively.

By EC50 is commonly meant the concentration needed to bring the measured effect to its halfway point. In the case of `Cc1ccc2nc(N3CCN(Cc4nnnn4Cc4ccccc4)CC3)c(C#N)cc2c1`, the EC50 in assay [1] was > 195 µM (not active).

Regarding `Cc1ccc(C(=O)NCCn2cc(SCC(=O)N3CCOCC3)c3ccccc32)cc1`, the EC50 in assay [1] is reported as > 195 µM (not active).

Take `COc1ccc(C(=O)N2CCC3(CCCN(Cc4ccccc4OC)C3)CC2)cc1`: the half-maximal activity concentration (AC50) on Cytochrome P450 2D6 is 12.6 µM (inconclusive); at Cytochrome P450 3A4, 15.8 µM (inconclusive).

Regarding `Cc1cc(C)c2c(O)nc(SCC(=O)N(C)C)nc2n1`, at Cytochrome P450 1A2, the half-maximal activity concentration (AC50) was 15.8 µM (inconclusive).

Turning to `COc1ccc(CSCCNC(=S)Nc2ccccc2)cc1Cl`, on Streptokinase A, the EC50 is on record as > 150 µM (not active).

On to `COCCN(CCOC)S(=O)(=O)c1ccc(C(=O)Nc2nc(C)c(C(C)=O)s2)cc1`, for which the AC50 at Cytochrome P450 1A2 was 0.1 µM (inconclusive); on Cytochrome P450 3A4, 3.16 µM (inconclusive); on Cytochrome P450 2C9, 20 µM (inconclusive).

For `Fc1cccc(CSc2ncnc3c2ncn3[C@H]2CCCS2)c1`, the AC50 was 3.98 µM (inconclusive) on Cytochrome P450 2C19 and 0.501 µM (inconclusive) on Cytochrome P450 1A2.

For `Cc1ccc(S(=O)(=O)c2cc(C#N)c(O)nc2N)cc1`, the half-maximal activity concentration (AC50) is 39.8 µM (inconclusive) at Cytochrome P450 2D6 and 25.1 µM (inconclusive) at Cytochrome P450 3A4.

Consider `CC(CO)(CO)Nc1ncnc2ccccc12`, for which, on Cytochrome P450 1A2, the AC50 is 6.31 µM (inconclusive).

Take `CCCC(=O)Nc1ccc2c(c1)nc(CCNC(=O)c1ccccc1)n2C`: the EC50 (in assay [2]; on Streptokinase A; with Streptococcus) was > 150 µM (not active) each time.

Turning to `CC1=NN(c2ccc([N+](=O)[O-])cc2)C(=O)/C1=C\N(C)C`, the half-maximal effective concentration (EC50) was 5.85 µM (active) in assay [2], > 150 µM (not active) at Streptokinase A and 10.9 µM (active) in the assay on Streptococcus.

Turning to `COc1ccc(C(=O)ON=C(N)c2ccccc2)c(OC)c1`, the results for the concentration for a half-maximal effect (EC50) in assay [3] and in assay [4] were > 120 µM (not active) and 5.93 µM (active), respectively.

On to `Cn1nnnc1SCc1ccc(C(=O)Nc2ccc(Br)cc2)cc1`, for which the concentration at half-maximal activity (AC50) was 6.31 µM (inconclusive) on Cytochrome P450 2C19, 6.31 µM (inconclusive) on Cytochrome P450 1A2 and 2 µM (inconclusive) on Cytochrome P450 2C9.

`CC1CCCN(S(=O)(=O)c2ccc(C(=O)Nc3nnc(C4CC4)o3)cc2)C1` (stereo unspecified): the figures for the EC50 (in assay [2]; on Streptokinase A; in the assay with Streptococcus) were 4.14 µM (active), > 150 µM (not active) and 13.8 µM (active), respectively.

Regarding `CC(C)CCN(C(=O)CNC(=O)c1cccs1)C(C(=O)NC1CCCCC1)c1cccnc1` (stereo unspecified), the EC50 in [1] is recorded as > 195 µM (not active).

Regarding `CN1C(=O)/C(=C/c2ccccc2F)Sc2ccc(C(=O)NCC3CCCO3)cc21` (stereo unspecified), the results for the EC50 (in [2]; at Streptokinase A; in the assay on Streptococcus) were 1.09 µM (active), > 150 µM (not active) and 15.6 µM (active), respectively.

For the compound `COc1ccc(-c2nc3cnc(N4CCOCC4)nc3n(CCc3ccccc3)c2=O)cc1`, the AC50 at Cytochrome P450 1A2 was 10 µM (inconclusive).

In the case of `CCc1cc(C(=O)NCC(C)(C)N2CCOCC2)sc1C`, the EC50 in assay [1] is given as > 195 µM (not active).

With `CNC(=O)c1[nH]cnc1C(=O)Nc1ccccc1C`, the EC50 in assay [1] was > 195 µM (not active).

Consider `C=CCC(NCc1ccco1)c1ccc(OC)cc1` (stereo unspecified), for which the AC50 at Cytochrome P450 1A2 was 28.2 µM (inconclusive); on Cytochrome P450 3A4, 22.4 µM (inconclusive).

`CCN(CC)C(=O)c1cc(-c2ccc(Br)cc2)on1`: the concentration for a half-maximal effect (EC50) (in [2]; on Streptokinase A; with Streptococcus) was > 150 µM (not active) in each case.

Consider `COC(C(=O)Nc1ccnn1C1CCN(Cc2nccs2)CC1)c1ccccc1` (stereo unspecified), for which the EC50 (in assay [2]; on Streptokinase A; in the assay on Streptococcus) was > 150 µM (not active) in each case.

As to `O=C(Nc1nncs1)c1ccc(F)c(S(=O)(=O)N2CCCCC2)c1`, the EC50 in [1] was 39.5 µM (active).

Take `O=C(Nc1cccc(Cl)c1)c1ccc(S(=O)(=O)NCC2CCCO2)cc1` (stereo unspecified): the EC50 in assay [1] is > 195 µM (not active).

Consider `COCCNc1nc(-c2ccccc2OC)nc2ccccc12`, for which the values for the AC50 at Cytochrome P450 2D6 and at Cytochrome P450 3A4 were 25.1 µM (inconclusive) and 20 µM (inconclusive), respectively.

For `COc1ccc2nc(N3C(=O)CC(Cc4ccc(Cl)cc4)C3=O)sc2c1` (stereo unspecified), the AC50 at Cytochrome P450 1A2 is 2.24 µM (inconclusive).

As for `COc1ccc(S(=O)(=O)N2CCCC2)cc1C(C)C`, in [1], the EC50 is given as > 195 µM (not active).

Take `CC1CCC(C(C)C)C(OCC(O)CN2CCN(Cc3ccccc3)CC2)C1` (stereo unspecified): the AC50 is 12.6 µM (inconclusive) at Cytochrome P450 1A2 and 1.41 µM (inconclusive) on Cytochrome P450 2C9.

Consider `c1ccc2c(c1)ncn2-c1ncnc2sc3c(c12)CCCC3`, for which the concentration at half-maximal activity (AC50) was 0.00501 µM (inconclusive) on Cytochrome P450 2D6, 14.1 µM (inconclusive) at Cytochrome P450 3A4 and 20 µM (inconclusive) at Cytochrome P450 2C9.

Regarding `Cc1noc(C)c1C(=O)Nc1nccs1`, the EC50 (in assay [2]; on Streptokinase A; in the assay with Streptococcus) was > 150 µM (not active) throughout.

Consider `O=C(O)C1CCC(=O)N(C2CCCCC2)C1c1ccccc1Cl` (stereo unspecified), for which the EC50 in [1] was > 195 µM (not active).

For the compound `CCOC(=O)c1cc2occc2n1CC(=O)N1CCCc2ccccc21`, the EC50 in [1] is > 195 µM (not active).

Turning to `Cc1cccc(N2CCN(Cc3nc(-c4ccccc4Cl)oc3C)CC2)n1`, the EC50 in [1] is reported as > 195 µM (not active).

For the compound `Sc1nnc(C2CCCCC2)n1/N=C/c1c(Cl)cccc1Cl`, the concentration giving a half-maximal response (EC50) is 10.1 µM (active) in [2], > 150 µM (not active) on Streptokinase A and 71.9 µM (active) in the assay on Streptococcus.

For the compound `CC1Cc2ccccc2N1C(=O)CO/N=C/c1ccc(OC(F)F)cc1` (stereo unspecified), the EC50 in assay [1] is reported as > 195 µM (not active).

As for `COc1ccc(/C(C)=N/NC(=O)c2ccc(N(C)C)cc2)cc1`, the concentration at half-maximal activity (AC50) at Cytochrome P450 1A2 is 10 µM (inconclusive).

Regarding `Cc1ccc(/C=N/n2cnnc2)s1`, the AC50 is 11.2 µM (inconclusive) on Cytochrome P450 2C19, 22.4 µM (inconclusive) at Cytochrome P450 1A2, 15.8 µM (inconclusive) on Cytochrome P450 3A4 and 14.1 µM (inconclusive) on Cytochrome P450 2C9.
